Data: US8895538B2, “Combination and composition that contains an antimicrobial, a glucocorticoid and an antimycotic” (Laboratories Senosiain S.A. de C.V., priority 2009, dated 2014)

Tests used:
[1] = Laboratory assays of sensitivity, solubility and stability of the active agents at different pH conditions; assay type: physicochemical
Description: Laboratory assays were carried out for verifying the sensitivity, solubility and stability of the active agents at different pH conditions. Thus, their stability was tested at different pH conditions. Due to the sensitivity of the active agents, the addition order of these components, as well as the excipient and vehicle selection are of great importance for avoiding degradation or incompatibilities of said active agents.

mice = details: administered orally; cited from earlier work
rats = details: administered orally; cited from earlier work
[2] = in vivo; cited from earlier work
[3] = cited from earlier work

Q: For `CC(=O)O[C@H]1C[C@@]2(C)[C@@H](C[C@@H](O)[C@H]3[C@@]4(C)CC[C@@H](O)[C@@H](C)[C@@H]4CC[C@@]32C)/C1=C(\CCC=C(C)C)C(=O)O` [Fusidic acid], which “stability in the presence of acid substances” value [1] is on record?
A: The value was “greatly reduced”.

Q: Which LD50 (mice) does the source give for `Clc1ccccc1C(c1ccccc1)(c1ccccc1)n1ccnc1` [Clotrimazole] here?
A: The LD50 was 923 mg/kg.

Q: What about the LD50 (rats) of the same compound?
A: The LD50 was 708 mg/kg.

Q: What about the “absorbed in topical applications” value [2] of the same compound?
A: Its value is 3-10 % of the dose.

Q: And the “hydrolysis in acid solution at high temperature” value ([3]; acid solution, high temperature)?
A: Its value is “rapidly hydrolised”.

Q: For `C[C@H]1C[C@H]2[C@@H]3CCC4=CC(=O)C=C[C@]4(C)[C@@]3(F)[C@@H](O)C[C@]2(C)[C@@]1(O)C(=O)CO` [Betametasone], which solubility in water ([3]; water) is on record?
A: The solubility in water was “almost insoluble”.
